The text below walks through data of ChEMBL document CHEMBL1201862, “PubChem BioAssay data set” (2004).

Test systems include HCC 2998; UACC-257; CAKI-1; Hs-578T; T47D; OVCAR-8; LOX IMVI; SK-MEL-28; SR; HOP-62; SK-OV-3; SN12C; OVCAR-5; HCT-15; CCRF-CEM; SF-268; MOLT-4; SF-539; HL-60.
Common to all, as to assay: NCI tumour cell line growth inhibition, 48 h

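Where inhibition never reached the appropriate level, the endpoint shown equals the highest concentration tested. Otherwise, values were interpolated linearly from a five-concentration, 48-hour dose response in 96-well plates. GI50 marks 50% less growth.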 Calls of active or inactive are those of the source. Cut-off read from the data, not from the text of the source: active = GI50 up to about 1.1 µM and inactive = higher. Bounds are passed on as bounds.

Turning to `O=C(O)CSc1ccc(N=C=S)cc1`, the GI50 in the assay with HCC 2998 is 31.1 µM (inactive); with UACC-257, 29.5 µM (inactive); in the assay with CAKI-1, > 100 µM (inactive); in the assay on Hs-578T, 47.5 µM (inactive); with T47D, 72.4 µM (inactive); in the assay on OVCAR-8, 71.4 µM (inactive). The GI50 is 48.6 µM (inactive) in the assay on LOX IMVI; 34.8 µM (inactive) in the assay on SK-MEL-28; 3.43 µM (inactive) in the assay with SR; 54.1 µM (inactive) in the assay with HOP-62; > 100 µM (inactive) in the assay on SK-OV-3; 39.3 µM (inactive) in the assay on SN12C. Further, the GI50 with OVCAR-5 is > 100 µM (inactive); in the assay with HCT-15 it was 62.8 µM; with CCRF-CEM, 12.6 µM (inactive); in the assay on SF-268, 71.6 µM (inactive); in the assay on MOLT-4, 20.4 µM (inactive); in the assay on SF-539 it was 30.5 µM (inactive).

Turning to `Cc1c2ccccc2c(CSC(=N)N)c2ccccc12`, the GI50 was 0.187 µM (active) in the assay with UACC-257; 0.172 µM (active) in the assay on Hs-578T; 0.535 µM (active) with T47D; 0.199 µM (active) in the assay with OVCAR-8; 0.202 µM (active) with LOX IMVI; 0.27 µM (active) with SK-MEL-28. Moreover, the GI50 is 0.0194 µM (active) in the assay with SR; 0.111 µM (active) in the assay with HL-60; 0.241 µM (active) in the assay with HOP-62; 0.344 µM (active) in the assay with SK-OV-3; 0.152 µM (active) with SN12C; 0.326 µM (active) in the assay with OVCAR-5. Moreover, the GI50 in the assay with HCT-15 is 0.269 µM; in the assay on CCRF-CEM, 0.0203 µM (active); with SF-268, 0.0738 µM (active); in the assay on MOLT-4, 0.0284 µM (active); in the assay with SF-539, 0.118 µM (active).

`CC(=O)c1ccc2c3c1[C@@H]1O[C@@H]1c1cccc(c1-3)[C@@H]1O[C@H]21`: the GI50 was 16.9 µM (inactive) with UACC-257; 4.72 µM (inactive) in the assay on CAKI-1; 14.9 µM (inactive) in the assay with Hs-578T; 6.76 µM (inactive) in the assay with T47D; 3.94 µM (inactive) with OVCAR-8; 2.07 µM (inactive) with LOX IMVI. The GI50 is 3.5 µM (inactive) with SK-MEL-28; > 100 µM (inactive) in the assay with SR; 9.91 µM (inactive) in the assay on HL-60; 13.7 µM (inactive) in the assay on HOP-62; 28.6 µM (inactive) in the assay with SK-OV-3; 8.26 µM (inactive) in the assay with SN12C. The GI50 with OVCAR-5 is 17.7 µM (inactive); in the assay on HCT-15, 3.44 µM; with CCRF-CEM it was 2.86 µM (inactive); in the assay on SF-268 it was 6.62 µM (inactive); in the assay on MOLT-4, 14.1 µM (inactive).

Turning to `C=CC1(c2ccc(Br)cc2)OCCCO1`, the GI50 in the assay with HCC 2998, in the assay with UACC-257, with Hs-578T, in the assay with T47D, with OVCAR-8 and in the assay with LOX IMVI was > 100 µM (inactive) throughout. For the same compound, the GI50 in the assay with SK-MEL-28, in the assay with SR, with HL-60, in the assay on HOP-62, with SK-OV-3 and with SN12C was > 100 µM (inactive) throughout. Besides, the GI50 was > 100 µM (inactive) in the assay with OVCAR-5; greater than 100 µM with HCT-15; > 100 µM (inactive) in the assay with CCRF-CEM; > 100 µM (inactive) in the assay on SF-268; > 100 µM (inactive) in the assay on MOLT-4; > 100 µM (inactive) with SF-539.

`CC(=O)/C=C1\Nc2ccccc2N\C1=C/C(C)=O`: the GI50 was 20.3 µM (inactive) with UACC-257; 60.8 µM (inactive) in the assay on CAKI-1; 29.9 µM (inactive) in the assay on Hs-578T; 19.5 µM (inactive) with T47D; 24.7 µM (inactive) with OVCAR-8; 24.5 µM (inactive) with LOX IMVI. For the same compound, the GI50 was 41.7 µM (inactive) with SK-MEL-28; 25.1 µM (inactive) in the assay on SR; 23.9 µM (inactive) in the assay on HL-60; 27.3 µM (inactive) in the assay on HOP-62; 30.6 µM (inactive) in the assay on SK-OV-3; 25.7 µM (inactive) in the assay with SN12C. Moreover, the GI50 in the assay on OVCAR-5 was 28.8 µM (inactive); in the assay on HCT-15 it was 24.3 µM; in the assay on CCRF-CEM, 17.2 µM (inactive); with SF-268, 23.5 µM (inactive); in the assay with MOLT-4, 14.5 µM (inactive); with SF-539, 30.3 µM (inactive).

As to `COC(=O)C1CC(C=[N+](C)C)=C(SC)N1` (centres undefined), the GI50 with HCC 2998, with UACC-257, with CAKI-1, in the assay on Hs-578T, in the assay on T47D and with OVCAR-8 was > 100 µM (inactive) throughout. Besides, the GI50 is > 100 µM (inactive) in the assay on SK-MEL-28; > 100 µM (inactive) in the assay on SR; > 100 µM (inactive) in the assay on HOP-62; > 100 µM (inactive) in the assay on SK-OV-3; > 100 µM (inactive) in the assay with OVCAR-5; greater than 100 µM in the assay with HCT-15. Besides, the GI50 in the assay with SF-268 and in the assay with MOLT-4 was > 100 µM (inactive) in each case.

Regarding `CC(C)(C)OC(=O)N1C(=O)C2CCCC21` (centres undefined), the GI50 in the assay on HCC 2998, in the assay with UACC-257, with Hs-578T, in the assay with T47D, with OVCAR-8 and in the assay with LOX IMVI was > 100 µM (inactive) in each case. Besides, the GI50 in the assay on SK-MEL-28, in the assay with SR, in the assay with HL-60, in the assay with HOP-62, with SK-OV-3 and with SN12C was > 100 µM (inactive) each time. In addition, the GI50 is > 100 µM (inactive) in the assay on OVCAR-5; greater than 100 µM in the assay on HCT-15; > 100 µM (inactive) in the assay on CCRF-CEM; > 100 µM (inactive) in the assay with SF-268; > 100 µM (inactive) in the assay on MOLT-4.

For `Nc1c(-c2nc3ccccc3o2)sc(=S)n1-c1ccc(Cl)cc1`, the GI50 in the assay on HCC 2998 was 1.27 µM (inactive); with UACC-257 it was 18 µM (inactive); in the assay with CAKI-1, 12.6 µM (inactive); in the assay with Hs-578T, 12.8 µM (inactive); with T47D it was 2.58 µM (inactive); in the assay on OVCAR-8, 12.1 µM (inactive). In addition, the GI50 is 13.9 µM (inactive) in the assay on SK-MEL-28; 51.5 µM (inactive) in the assay on SR; > 100 µM (inactive) in the assay on HL-60; 5.11 µM (inactive) in the assay with HOP-62; 15.5 µM (inactive) with SK-OV-3; 51.8 µM (inactive) with SN12C. For the same compound, the GI50 with OVCAR-5 is 46.1 µM (inactive); in the assay with HCT-15, 26.1 µM; with CCRF-CEM, > 100 µM (inactive); in the assay with SF-268, 12.9 µM (inactive); in the assay with MOLT-4 it was > 100 µM (inactive); in the assay with SF-539, 11.6 µM (inactive).

As for `CC(=O)Oc1ccc(-c2nnc(-c3ccc(OC(C)=O)cc3)nn2)cc1`, the GI50 in the assay on UACC-257, in the assay with CAKI-1, in the assay on Hs-578T, in the assay with T47D, in the assay on OVCAR-8 and in the assay on LOX IMVI was > 100 µM (inactive) throughout. Also, the GI50 in the assay on SK-MEL-28 is > 100 µM (inactive); with SR it was 20.4 µM (inactive); in the assay with HL-60, 29.8 µM (inactive); with HOP-62 it was > 100 µM (inactive); in the assay on SK-OV-3 it was > 100 µM (inactive); with SN12C, > 100 µM (inactive). In addition, the GI50 is > 100 µM (inactive) with OVCAR-5; 51.4 µM with HCT-15; 40.6 µM (inactive) with CCRF-CEM; > 100 µM (inactive) in the assay with SF-268; > 100 µM (inactive) in the assay on MOLT-4; > 100 µM (inactive) with SF-539.

For `O=C1CC(c2ccccc2Cl)C2(C(=O)NC(=O)NC2=O)C(c2ccccc2Cl)C1` (centres undefined), the GI50 is 49.2 µM (inactive) in the assay on HCC 2998; > 100 µM (inactive) in the assay with UACC-257; 41.4 µM (inactive) in the assay with Hs-578T; 18.8 µM (inactive) in the assay with T47D; > 100 µM (inactive) in the assay with OVCAR-8; 51.8 µM (inactive) in the assay on LOX IMVI. Moreover, the GI50 with SK-MEL-28 is > 100 µM (inactive); with SR, 58.1 µM (inactive); in the assay with HL-60 it was 80.4 µM (inactive); in the assay with HOP-62 it was > 100 µM (inactive); in the assay on SK-OV-3 it was 0.356 µM (active); in the assay with SN12C, > 100 µM (inactive). Besides, the GI50 in the assay on OVCAR-5 is > 100 µM (inactive); in the assay with HCT-15, greater than 100 µM; in the assay on CCRF-CEM, > 100 µM (inactive); in the assay with SF-268, 39.4 µM (inactive); with MOLT-4, > 100 µM (inactive); in the assay on SF-539 it was 76.2 µM (inactive).

Take `CC(C)(Oc1ccc(C2C[C@H]2Cl)cc1)C(=O)O` (some centres undefined): the GI50 in the assay on UACC-257 was > 100 µM (inactive); in the assay on CAKI-1, > 100 µM (inactive); with Hs-578T, > 100 µM (inactive); with T47D it was 15.3 µM (inactive); with LOX IMVI it was > 100 µM (inactive); in the assay with SK-MEL-28, > 100 µM (inactive). Besides, the GI50 in the assay on SR, with HL-60, in the assay with HOP-62, in the assay with SK-OV-3, with SN12C and in the assay with OVCAR-5 was > 100 µM (inactive) in each case. The GI50 is greater than 100 µM in the assay on HCT-15, > 100 µM (inactive) in the assay with MOLT-4 and > 100 µM (inactive) in the assay on SF-539.

Turning to `COc1cc(C2(O)c3ccccc3C3=NCCN32)cc(OC)c1OC` (centres undefined), the GI50 in the assay on HCC 2998, in the assay on UACC-257, in the assay on CAKI-1, in the assay with Hs-578T, with T47D and in the assay with LOX IMVI was > 100 µM (inactive) each time. The GI50 in the assay on SK-MEL-28 was > 100 µM (inactive); in the assay on SR, 64.3 µM (inactive); in the assay with HL-60, > 100 µM (inactive); in the assay on HOP-62 it was > 100 µM (inactive); with SK-OV-3, > 100 µM (inactive); in the assay on SN12C, > 100 µM (inactive). Further, the GI50 with HCT-15 was greater than 100 µM; in the assay on CCRF-CEM, > 100 µM (inactive); in the assay with SF-268, > 100 µM (inactive); in the assay with MOLT-4, 30.3 µM (inactive).
